Test system: A. nidulans, C. albicans, C. albicans 95-158 Flu-R, Cryp. neomormans, Candida krusei, and C. glabrata
Assay: Fungicidal test, viability of treated fungal cells spotted on YPD agar
Assay type: cell-based
Details: after 72 h exposure

Compound	resistance in treated fungi
C=C1CC[C@H]2C(C)(C)CCC[C@]2(C)[C@H]1CO [Albicanol, (+)-albicanol]	not observed
CC1=CC[C@H]2C(C)(C)CCC[C@]2(C)[C@H]1CO [drimenol, (−)-drimenol]	not observed
